Results reported in ChEMBL document CHEMBL1130369, “Design, syntheses and potentiating activities against methicillin resistant Staphylococcus aureus of cyclic analogs of LY301621” (1997).

Legend:
Staphylococcus aureus [1] = test: Minimum concentration required to inhibit growth of methicillin sensitive Staphylococcus aureus strain 446; assay type: functional
Staphylococcus aureus [2] = test: Minimal synergizing concentration required to inhibit growth of Staphylococcus aureus strain 447 in the presence of 4 ug/mL of methicillin.; assay type: functional
Staphylococcus aureus [3] = test: Ability of 40 ug to enlarge the zone of inhibition produced by 100 microg of methicillin in disk assay using Staphylococcus aureus strain 447; No synergy; assay type: functional, organism-based
Staphylococcus aureus [4] = test: Ability of 40 ug to enlarge the zone of inhibition produced by 100 microg of methicillin in disk assay using Staphylococcus aureus strain 447; synergy; assay type: functional, organism-based
Staphylococcus aureus [5] = test: Ability of 40 ug to enlarge the zone of inhibition produced by 100 microg of methicillin in disk assay using Staphylococcus aureus strain 447; Synergy; assay type: functional, organism-based
Staphylococcus aureus [6] = test: Minimum concentration required to inhibit growth of methicillin resistant Staphylococcus aureus strain 447; assay type: functional
[7] = Staphylococcus aureus, read-out: MIC

| Compound | MIC (Staphylococcus aureus [1]; [7]) | MSC (Staphylococcus aureus [2]) | further results |
| --- | --- | --- | --- |
| O=C1N[C@@H](C(c2ccccc2)c2ccccc2)C(=O)N2CCC[C@@H]2C(=O)NCc2ccccc2-c2ccccc21 | > 100 µg/mL | >100 µg/mL | Synergy with methicillin (Staphylococcus aureus [3]): No synergy |
| O=C(N[C@@H](C(=O)N1CCC[C@H]1C(=O)N[C@H](CO)Cc1ccccc1)C(c1ccccc1)c1ccccc1)OCc1ccccc1 | > 100 µg/mL | 12.5 µg/mL | Synergy with methicillin (Staphylococcus aureus [4]): synergy |
| O=C1N[C@@H](C(c2ccccc2)c2ccccc2)C(=O)N2CCCC2C(=O)N[C@](CO)(Cc2ccccc2)C(=O)Nc2ccccc21 (single isomer, unassigned) |  | >128 µg/mL | Synergy with methicillin (Staphylococcus aureus [5]): Synergy; MIC (Staphylococcus aureus [6]): >128 µg/mL |
| O=C1N[C@@H](C(c2ccccc2)c2ccccc2)C(=O)N2CCCC2C(=O)N[C@@](CO)(Cc2ccccc2)C(=O)Nc2ccccc21 (single isomer, unassigned) |  | >128 µg/mL | MIC (Staphylococcus aureus [1]): >128 µg/mL |
| O=C1N[C@@H](C(c2ccccc2)c2ccccc2)C(=O)N2CCCC2C(=O)NC(CO)(Cc2ccccc2)C(=O)Nc2ccccc21 (single isomer, unassigned; 1a) [listing 1 of 2 here] | > 128 µg/mL | >100 µg/mL | MIC (Staphylococcus aureus [6]; [7]): > 100 µg/mL |
| O=C1N[C@@H](C(c2ccccc2)c2ccccc2)C(=O)N2CCCC2C(=O)NC(CO)(Cc2ccccc2)C(=O)Nc2ccccc21 (single isomer, unassigned; 1a) [listing 2 of 2 here] |  |  | Synergy with methicillin (Staphylococcus aureus [3]): No synergy |
| O=C1N[C@@H](C(c2ccccc2)c2ccccc2)C(=O)N2CCCC2C(=O)NC(CO)(Cc2ccccc2)C(=O)Nc2ccccc21 (single isomer, unassigned; 1b) [listing 1 of 2 here] | > 100 µg/mL | 100 µg/mL |  |
| O=C1N[C@@H](C(c2ccccc2)c2ccccc2)C(=O)N2CCCC2C(=O)NC(CO)(Cc2ccccc2)C(=O)Nc2ccccc21 (single isomer, unassigned; 1b) [listing 2 of 2 here] |  |  | Synergy with methicillin (Staphylococcus aureus [5]): Synergy |
